# Experimental data taken from ChEMBL document CHEMBL1154822, “Synthesis and antiproliferative activity of 7-azaindirubin-3'-oxime, a 7-aza isostere of the natural indirubin pharmacophore” (J Nat Prod, 2009).
# What was measured:
# HCC 2998 = experiment: Cytotoxicity against human HCC2998 cells assessed as cell growth at 10 uM after 48 hrs by MTT assay; format: functional; details: HCC 2998, 48 h, read-out: Activity
# UACC-62 = experiment: Cytotoxicity against human UACC62 cells assessed as cell growth at 1 uM after 1 to 11 days by MTT assay; format: functional; details: read-out: Activity
# IGROV-1 = experiment: Cytotoxicity against human IGROV1 cells assessed as cell growth at 1 uM after 1 to 11 days by MTT assay; format: functional; details: read-out: Activity
# TK-10 [1] = experiment: Cytotoxicity against human TK10 cells assessed as cell growth at 1 uM after 1 to 11 days by MTT assay; format: functional; details: read-out: Activity
# PC-3 [2] = experiment: Cytotoxicity against human PC3 cells assessed as cell growth at 1 uM after 1 to 11 days by MTT assay; format: functional; details: read-out: Activity
# OVCAR-5 = experiment: Cytotoxicity against human OVCAR5 cells assessed as cell growth at 10 uM after 1 to 11 days by MTT assay; format: functional; details: read-out: Activity
# ACHN = experiment: Cytotoxicity against human ACHN cells assessed as cell growth at 10 uM after 1 to 11 days by MTT assay; format: functional; details: read-out: Activity
# SN12C = experiment: Cytotoxicity against human SN12C cells assessed as cell growth at 10 uM after 1 to 11 days by MTT assay; format: functional; details: read-out: Activity
# CCRF-CEM = experiment: Cytotoxicity against human CCRF-CEM cells assessed as cell growth at 10 uM after 1 to 11 days by MTT assay; format: functional; details: read-out: Activity
# SNB-19 = experiment: Cytotoxicity against human SNB19 cells assessed as cell growth at 10 uM after 1 to 11 days by MTT assay; format: functional; details: read-out: Activity
# SNB-75 [3] = experiment: Cytotoxicity against human SNB75 cells assessed as cell growth at 10 uM after 1 to 11 days by MTT assay; format: functional; details: read-out: Activity
# LOX IMVI = experiment: Cytotoxicity against human LOXIMVI cells assessed as cell growth at 100 uM after 1 to 11 days by MTT assay; format: functional; details: read-out: Activity
# TK-10 [4] = experiment: Cytotoxicity against human TK10 cells assessed as cell growth at 10 uM after 1 to 11 days by MTT assay; format: functional; details: read-out: Activity
# MCF7 [5] = experiment: Cytotoxicity against human MCF7 cells assessed as cell growth at 10 uM after 1 to 11 days by MTT assay; format: functional; details: read-out: Activity
# NCI/ADR-RES = experiment: Cytotoxicity against human NCI/ADR-RES cells assessed as cell growth at 10 uM after 1 to 11 days by MTT assay; format: functional; details: read-out: Activity
# T47D = experiment: Cytotoxicity against human T47D cells assessed as cell growth at 10 uM after 1 to 11 days by MTT assay; format: functional; details: read-out: Activity
# NCI-H23 = experiment: Cytotoxicity against human NCI-H23 cells assessed as cell growth at 100 uM after 1 to 11 days by MTT assay; format: functional; details: read-out: Activity
# COLO 205 [6] = experiment: Cytotoxicity against human COLO205 cells assessed as cell growth at 100 uM after 1 to 11 days by MTT assay; format: functional; details: read-out: Activity
# HT-29 = experiment: Cytotoxicity against human HT-29 cells assessed as cell growth at 100 uM after 1 to 11 days by MTT assay; format: functional; details: read-out: Activity
# KM12 = experiment: Cytotoxicity against human KM12 cells assessed as cell growth at 100 uM after 1 to 11 days by MTT assay; format: functional; details: read-out: Activity
# PC-3 [7] = experiment: Cytotoxicity against human PC3 cells assessed as cell growth at 100 uM after 1 to 11 days by MTT assay; format: functional; details: read-out: Activity
# HL-60(TB) = experiment: Cytotoxicity against human HL-60(TB) cells assessed as cell growth at 1 mM after 1 to 11 days by MTT assay; format: functional; details: read-out: Activity
# HOP-62 = experiment: Cytotoxicity against human HOP62 cells assessed as cell growth at 1 mM after 1 to 11 days by MTT assay; format: functional; details: read-out: Activity
# HCT-15 [8] = experiment: Cytotoxicity against human HCT15 cells assessed as cell growth at 1 mM after 1 to 11 days by MTT assay; format: functional; details: read-out: Activity
# MOLT-4 = experiment: Cytotoxicity against human MOLT4 cells after 1 to 11 days by MTT assay; format: functional
# A549 = experiment: Cytotoxicity against human A549 cells after 1 to 11 days by MTT assay; format: functional
# U-251 = experiment: Cytotoxicity against human U251 cells assessed as cell growth at 1 mM after 1 to 11 days by MTT assay; format: functional; details: read-out: Activity
# TK-10 [9] = experiment: Cytotoxicity against human TK10 cells assessed as cell growth at 1 mM after 1 to 11 days by MTT assay; format: functional; details: read-out: Activity
# PC-3 [10] = experiment: Cytotoxicity against human PC3 cells assessed as cell growth at 1 mM after 1 to 11 days by MTT assay; format: functional; details: read-out: Activity
# OVCAR-8 = experiment: Cytotoxicity against human OVCAR8 cells after 1 to 11 days by MTT assay; format: functional
# TK-10 [11] = experiment: Cytotoxicity against human TK10 cells after 1 to 11 days by MTT assay; format: functional
# DU-145 = experiment: Cytotoxicity against human DU145 cells after 1 to 11 days by MTT assay; format: functional
# MCF7 [12] = experiment: Cytotoxicity against human MCF7 cells after 1 to 11 days by MTT assay; format: functional
# [13] = target: Glycogen synthase kinase-3 beta (Homo sapiens) (UniProt P49841); experiment: Inhibition of human GSK3-beta at 3 uM after 40 mins by scintillation counting
# Sequence of Glycogen synthase kinase-3 beta (Homo sapiens) (P49841 whole entry, looked up): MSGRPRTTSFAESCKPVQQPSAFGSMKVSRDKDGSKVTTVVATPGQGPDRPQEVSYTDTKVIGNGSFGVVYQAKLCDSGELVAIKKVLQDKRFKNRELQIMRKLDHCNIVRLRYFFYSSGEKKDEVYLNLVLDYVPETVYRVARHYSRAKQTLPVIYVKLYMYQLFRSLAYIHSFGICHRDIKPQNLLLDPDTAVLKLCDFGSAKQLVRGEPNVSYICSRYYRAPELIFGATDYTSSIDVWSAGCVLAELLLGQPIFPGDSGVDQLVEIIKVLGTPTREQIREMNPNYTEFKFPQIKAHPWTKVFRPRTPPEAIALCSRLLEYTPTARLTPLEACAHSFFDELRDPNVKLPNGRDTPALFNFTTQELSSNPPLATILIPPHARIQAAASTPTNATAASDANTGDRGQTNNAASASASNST
# SR = experiment: Cytotoxicity against human SR cells assessed as cell growth at 0.1 uM after 1 to 11 days by MTT assay; format: functional; details: read-out: Activity
# SNB-75 [14] = experiment: Cytotoxicity against human SNB75 cells assessed as cell growth at 0.1 uM after 1 to 11 days by MTT assay; format: functional; details: read-out: Activity
# SK-MEL-28 = experiment: Cytotoxicity against human SK-MEL-28 cells assessed as cell growth at 0.1 uM after 1 to 11 days by MTT assay; format: functional; details: read-out: Activity
# HCT-15 [15] = experiment: Cytotoxicity against human HCT15 cells assessed as cell growth at 0.1 uM after 1 to 11 days by MTT assay; format: functional; details: read-out: Activity
# PC-3 [16] = experiment: Cytotoxicity against human PC3 cells assessed as cell growth at 0.1 uM after 1 to 11 days by MTT assay; format: functional; details: read-out: Activity
# MDA-MB-231 = experiment: Cytotoxicity against human MDA-MB-231 cells assessed as cell growth at 0.1 uM after 1 to 11 days by MTT assay; format: functional; details: read-out: Activity
# K562 = experiment: Cytotoxicity against human K562 cells assessed as cell growth at 1 uM after 1 to 11 days by MTT assay; format: functional; details: read-out: Activity
# NCI-H226 = experiment: Cytotoxicity against human NCI-H226 cells assessed as cell growth at 1 uM after 1 to 11 days by MTT assay; format: functional; details: read-out: Activity
# COLO 205 [17] = experiment: Cytotoxicity against human COLO205 cells assessed as cell growth at 1 uM after 1 to 11 days by MTT assay; format: functional; details: read-out: Activity
# SK-MEL-5 = experiment: Cytotoxicity against human SK-MEL-5 cells assessed as cell growth at 1 uM after 1 to 11 days by MTT assay; format: functional; details: read-out: Activity
# [18] = read-out: LC50 (the source's name)
smiles,measurement,setting,value
O=C1Nc2ncccc2/C1=C1/Nc2ccccc2C1=O,growth at 10 µM,HCC 2998,25.3%
O=C1Nc2ncccc2/C1=C1/Nc2ccccc2/C1=N\O,growth at 1 µM,UACC-62,88%
same,growth at 1 µM,IGROV-1,84%
same,growth at 1 µM,TK-10 [1],104%
same,growth at 1 µM,PC-3 [2],83%
same,growth at 10 µM,OVCAR-5,94%
same,growth at 10 µM,ACHN,72%
same,growth at 10 µM,SN12C,81%
same,growth at 10 µM,CCRF-CEM,82%
same,growth at 10 µM,SNB-19,94%
same,growth at 10 µM,SNB-75 [3],86%
same,growth at 100 µM,LOX IMVI,36%
same,growth at 10 µM,TK-10 [4],91%
same,growth at 10 µM,MCF7 [5],86%
same,growth at 10 µM,NCI/ADR-RES,99%
same,growth at 10 µM,T47D,65%
same,growth at 100 µM,NCI-H23,55%
same,growth at 100 µM,COLO 205 [6],59%
same,growth at 100 µM,HT-29,81%
same,growth at 100 µM,KM12,6%
same,growth at 100 µM,PC-3 [7],44%
same,growth at 1000 µM,HL-60(TB),7%
same,growth at 1000 µM,HOP-62,74%
same,growth at 1000 µM,HCT-15 [8],24%
same,GI50,MOLT-4,2.99 µM
same,TGI,MOLT-4,> 100 µM
same,CC50,MOLT-4; [18],> 100 µM
same,GI50,A549,3.5 µM
same,TGI,A549,> 100 µM
same,CC50,A549; [18],> 100 µM
same,growth at 1000 µM,U-251,68%
same,growth at 1000 µM,TK-10 [9],14%
same,growth at 1000 µM,PC-3 [10],45%
same,GI50,OVCAR-8,> 100 µM
same,TGI,OVCAR-8,> 100 µM
same,CC50,OVCAR-8; [18],> 100 µM
same,GI50,TK-10 [11],9.72 µM
same,TGI,TK-10 [11],> 100 µM
same,CC50,TK-10 [11]; [18],> 100 µM
same,GI50,DU-145,5.69 µM
same,TGI,DU-145,> 100 µM
same,CC50,DU-145; [18],> 100 µM
same,GI50,MCF7 [12],15.9 µM
same,TGI,MCF7 [12],> 100 µM
same,CC50,MCF7 [12]; [18],> 100 µM
same,inhibition,[13],81%
same,growth at 0.1 µM,SR,109%
same,growth at 0.1 µM,SNB-75 [14],84%
same,growth at 0.1 µM,SK-MEL-28,88%
same,growth at 0.1 µM,HCT-15 [15],95%
same,growth at 0.1 µM,PC-3 [16],96%
same,growth at 0.1 µM,MDA-MB-231,99%
same,growth at 1 µM,K562,76%
same,growth at 1 µM,NCI-H226,84%
same,growth at 1 µM,COLO 205 [17],87%
same,growth at 1 µM,SK-MEL-5,98%
